# Results as given in US20110312934A1, “2-ALKYL-6-CYCLOAMINO-3-(PYRIDIN-4-YL)IMIDAZO[1,2-B]-PYRIDAZINE DERIVATIVES, PREPARATION THEREOF, AND THERAPEUTIC APPLICATION THEREOF” (SANOFI-AVENTIS, priority 2008, published 2011).
# Counter-ions that a name gives are not always drawn.
row,SMILES,melting point
1,Cc1nc2ccc(N3C[C@@H]4C[C@H]3CN4)nn2c1-c1ccncc1,120 °C (dec.)
2,Cc1cc(-c2c(C)nc3ccc(N4C[C@@H]5C[C@@H]4CN5)nn23)ccn1 (as salt: HBr),> 300 °C
3,Cc1cc(-c2c(C)nc3ccc(N4CCC5(CCCNC5)CC4)nn23)ccn1 (as salt: HCl),> 295 °C
4,Cc1nc2ccc(N3CCC4(CC3)CNCCO4)nn2c1-c1ccncc1 (as salt: HCl),> 255 °C
5,Cc1nc2ccc(N3CCC4(CC3)CNCCO4)nn2c1-c1ccnc(N)c1 (as salt: HCl),> 300 °C
6,"Cc1nc2ccc(N3CCNCC3)nn2c1-c1ccncc1 (as salt: HCl) [Compound 2, 2-Methyl-6-piperazin-1-yl-3-pyridin-4-yl-imidazo[1,2-b]pyridazine]",319 to 321 °C
7,"CCN1CCN(c2ccc3nc(C)c(-c4ccncc4)n3n2)CC1 (as salt: HCl) [Compound 42, 6-(4-Ethylpiperazin-1-yl)-2-methyl-3-pyridin-4-ylimidazo[1,2-b]pyridazine]",305 to 307 °C
8,"Cc1nc2ccc(N3C[C@@H](C)N[C@@H](C)C3)nn2c1-c1ccncc1 (as salt: HCl) [Compound 54, 6-(cis-3,5-Dimethylpiperazin-1-yl)-2-methyl-3-pyridin-4-ylimidazo[1,2-b]pyridazine]",343 to 345 °C
9,"Cc1cc(-c2c(C)nc3ccc(N4CC5CNCC5C4)nn23)ccn1 (stereo not shown) (as salt: HCl) [Compound 67, 6-Hexahydropyrrolo[3,4-c]pyrrol-2(1H)-yl-2-methyl-3-(2-methylpyridin-4-yl)-imidazo[1,2-b]-pyridazine]",214 to 221 °C
10,"Cc1nc2ccc(N3CCNCC3)nn2c1-c1ccnc(F)c1 [Compound 3, 3-(2-Fluoropyridin-4-yl)-2-methyl-6-piperazin-1-ylimidazo[1,2-b]pyridazine]",139 to 141 °C
11,"CC(C)c1nc2ccc(N3CCNCC3)nn2c1-c1ccncc1 [Compound 9, 2-Isopropyl-6-piperazin-1-yl-3-pyridin-4-ylimidazo[1,2-b]pyridazine]",199 to 201 °C
12,"c1cc(-c2c(C3CC3)nc3ccc(N4CCNCC4)nn23)ccn1 [Compound 11, 2-Cyclopropyl-6-piperazin-1-yl-3-pyridin-4-ylimidazo[1,2-b]pyridazine]",169 to 171 °C
13,"CC(C)Cc1nc2ccc(N3CCNCC3)nn2c1-c1ccncc1 [Compound 16, 2-Isobutyl-6-piperazin-1-yl-3-pyridin-4-ylimidazo[1,2-b]pyridazine]",92 to 119 °C
14,"Cc1nc2ccc(N3CCN[C@H](C)C3)nn2c1-c1ccncc1 [Compound 26, 2-Methyl-6-((R)-3-methylpiperazin-1-yl)-3-pyridin-4-ylimidazo[1,2-b]pyridazine]",146 to 148 °C
15,"Cc1cc(-c2c(C)nc3ccc(N4CCN[C@H](C)C4)nn23)ccn1 [Compound 27, 2-Methyl-6-((R)-3-methylpiperazin-1-yl)-3-(2-methylpyridin-4-yl)imidazo[1,2-b]pyridazine]",157 to 159 °C
16,"Cc1nc2ccc(N3CCN[C@H](C)C3)nn2c1-c1ccnc(N)c1 [Compound 28, 4-[2-Methyl-6-((R)-3-methylpiperazin-1-yl)imidazo[1,2-b]pyridazin-3-yl]pyridin-2-ylamine]",172 to 177 °C
17,"Cc1nc2ccc(N3CCN[C@@H](C)C3)nn2c1-c1ccncc1 [Compound 35, 2-Methyl-6-((S)-3-methylpiperazin-1-yl)-3-pyridin-4-ylimidazo[1,2-b]pyridazine]",146 to 148 °C
18,"COc1cc(-c2c(C)nc3ccc(N4CCN[C@@H](C)C4)nn23)ccn1 [Compound 36, 3-(2-Methoxypyridin-4-yl)-2-methyl-6-((S)-3-methylpiperazin-1-yl)imidazo[1,2-b]pyridazine]",106 to 108 °C
19,"Cc1nc2ccc(N3CCN[C@@H](C)C3)nn2c1-c1ccnc(N)c1 [Compound 38, 4-[2-Methyl-6-((S)-3-methylpiperazin-1-yl)imidazo[1,2-b]pyridazin-3-yl]pyridin-2-ylamine]",172 to 177 °C
20,"Cc1nc2ccc(N3CCN(C)CC3)nn2c1-c1ccncc1 [Compound 39, 2-Methyl-6-(4-methylpiperazin-1-yl)-3-pyridin-4-ylimidazo[1,2-b]pyridazine]",150 to 152 °C

row,SMILES,melting point
1,"CN1CCN(c2ccc3nc(C(F)(F)F)c(-c4ccncc4)n3n2)CC1 [Compound 40, 6-(4-Methylpiperazin-1-yl)-3-pyridin-4-yl-2-trifluoromethylimidazo[1,2-b]pyridazine]",182 to 184 °C
2,"Cc1nc2ccc(N3CCNC(CO)C3)nn2c1-c1ccncc1 (stereo not shown) [Compound 41, [4-(2-Methyl-3-pyridin-4-ylimidazo[1,2-b]pyridazin-6-yl)piperazin-2-yl]methanol]",237 to 240 °C
3,"CCN1CCN(c2ccc3nc(C)c(-c4ccnc(C)c4)n3n2)CC1 [Compound 43, 6-(4-Ethylpiperazin-1-yl)-2-methyl-3-(2-methylpyridin-4-yl)imidazo[1,2-b]pyridazine]",144 to 146 °C
4,"Cc1cc(-c2c(C)nc3ccc(N4CCN(C(C)C)CC4)nn23)ccn1 [Compound 45, 6-(4-Isopropylpiperazin-1-yl)-2-methyl-3-(2-methylpyridin-4-yl)imidazo[1,2-b]pyridazine]",97 to 99 °C
5,"Cc1nc2ccc(N3CCN(C4CCC4)CC3)nn2c1-c1ccncc1 [Compound 47, 6-(4-Cyclobutylpiperazin-1-yl)-2-methyl-3-pyridin-4-ylimidazo[1,2-b]pyridazine]",122 to 132 °C
6,"Cc1nc2ccc(N3CCN(C4CCC4)CC3)nn2c1-c1ccnc(N)c1 [Compound 48, 4-[6-(4-Cyclobutylpiperazin-1-yl)-2-methylimidazo[1,2-b]pyridazin-3-yl]pyridin-2-ylamine]",132 to 144 °C
7,"Cc1nc2ccc(N3CCNC(C)(C)C3)nn2c1-c1ccnc(CN)c1 [Compound 50, {4-[6-(3,3-Dimethylpiperazin-1-yl)-2-methylimidazo[1,2-b]pyridazin-3-yl]pyridin-2-yl}methylamine]",151 to 156 °C
8,"Cc1cc(-c2c(C)nc3ccc(N4C[C@@H](C)N[C@@H](C)C4)nn23)ccn1 [Compound 55, 6-(cis-3,5-Dimethylpiperazin-1-yl)-2-methyl-3-(2-methylpyridin-4-yl)imidazo[1,2-b]pyridazine]",127 to 129 °C
9,"Cc1nc2ccc(N3C[C@@H](C)N[C@@H](C)C3)nn2c1-c1ccnc(N)c1 [Compound 56, 4-[6-(cis-3,5-Dimethylpiperazin-1-yl)-2-methylimidazo[1,2-b]pyridazin-3-yl]pyridin-2-ylamine]",213 to 215 °C
10,"CNc1cc(-c2c(C)nc3ccc(N4C[C@@H](C)N[C@@H](C)C4)nn23)ccn1 [Compound 57, {4-[6-(cis-3,5-Dimethylpiperazin-1-yl)-2-methylimidazo[1,2-b]pyridazin-3-yl]pyridin-2-yl}-methylamine]",111 to 126 °C
11,"Cc1cc(-c2c(C)nc3ccc(N4C[C@H]5CCN[C@@H]5C4)nn23)ccn1 [Compound 65, (R,S)-6-(Hexahydropyrrolo[3,4-b]pyrrol-5(1H)-yl)-2-methyl-3-(2-methylpyridin-4-yl)imidazo[1,2-b]pyridazine]",131 to 133 °C
12,"Cc1nc2ccc(N3CC4CNCC4C3)nn2c1-c1ccnc(N)c1 (stereo not shown) [Compound 68, {4-[6-(Hexahydropyrrolo[3,4-c]pyrrol-2(1H)-yl)-2-methylimidazo[1,2-b]pyridazin-3-yl]pyridin-2-yl}amine]",> 155 °C (dec.)
13,"Cc1nc2ccc(N3CC4CN(C(C)C)CC4C3)nn2c1-c1ccncc1 (stereo not shown) [Compound 72, 6-(−5-Isopropylhexahydropyrrolo[3,4-c]pyrrol-2(1H)-yl)-2-methyl-3-pyridin-4-ylimidazo[1,2-b]-pyridazine]",172 to 175 °C
14,"Cc1nc2ccc(N3CC4CN(C(C)C)CC4C3)nn2c1-c1ccnc(N)c1 (stereo not shown) [Compound 73, 4-[6-(−5-Isopropylhexahydropyrrolo[3,4-c]pyrrol-2(1H)-yl)-2-methylimidazo[1,2-b]pyridazin-3-yl]pyridin-2-ylamine]",215 to 218 °C
15,"COc1cc(-c2c(C)nc3ccc(N4CC5CNCC5C4)nn23)ccn1 (stereo not shown) [Compound 74, 6-Hexahydropyrrolo[3,4-c]pyrrol-2(1H)-yl-3-(2-methoxypyridin-4-yl)-2-methylimidazo[1,2-b]-pyridazine]",95 °C
16,"Cc1nc2ccc(N3C[C@H]4CCCN[C@@H]4C3)nn2c1-c1ccncc1 [Compound 75, (R,S)-2-Methyl-6-(octahydropyrrolo[3,4-b]pyridin-6-yl)-3-pyridin-4-ylimidazo[1,2-b]-pyridazine]",130 to 135 °C
17,"Cc1cc(-c2c(C)nc3ccc(N4CCC5(CC4)CNC5)nn23)ccn1 [Compound 76, 6-(2,7-Diazaspiro[3.5]non-7-yl)-2-methyl-3-(2-methylpyridin-4-yl)imidazo[1,2-b]pyridazine]",117 to 120 °C
18,"Cc1nc2ccc(N3CCC(N4CCCC4)CC3)nn2c1-c1ccncc1 [Compound 82, 2-Methyl-3-pyridin-4-yl-6-(4-pyrrolidin-1-ylpiperidin-1-yl)imidazo[1,2-b]pyridazine]",150 to 153 °C
19,"Cc1cc(-c2c(C)nc3ccc(N4CCC(N5CCCC5)CC4)nn23)ccn1 [Compound 83, 2-Methyl-3-(2-methylpyridin-4-yl)-6-(4-pyrrolidin-1-ylpiperidin-1-yl)imidazo[1,2-b]pyridazine]",124 to 126 °C
20,"Cc1nc2ccc(N3CCC(N4CCCC4)CC3)nn2c1-c1ccnc(N)c1 [Compound 84, 4-[2-Methyl-6-(4-pyrrolidin-1-ylpiperidin-1-yl)imidazo[1,2-b]pyridazin-3-yl]pyridin-2-ylamine]",129 to 138 °C
